From the supplement of paper PMC10307832

How the values were obtained:
Test in all cases: relative viability (nuclei count vs DMSO), 5 days (fraction); higher = more cells survive
[1] = compound: C=CCc1cccc(/C=N/NC(=O)CN2CCN(Cc3ccccc3)CC2)c1O [PAC-1] + CC1(C)CCC(c2ccc(Cl)cc2)=C(CN2CCN(c3ccc(C(=O)NS(=O)(=O)c4ccc(N[C@H](CCN5CCOCC5)CSc5ccccc5)c(S(=O)(=O)C(F)(F)F)c4)cc3)CC2)C1 [Navitoclax] (partner 0.5 µM)
Summary of the method: (§1)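 For relative viability, nuclei counts in treated wells were divided by those in vehicle wells. Lung cancer cell lines had been pin-tool dosed in 1536-well plates the day after seeding and cultured for 5 days, then fixed and stained in one step (final 0.05% Triton X-100, 1% formaldehyde, 1 ug/ml Hoechst) and imaged at 4×. Doses were one drug alone or a fixed anchor-drug dose plus five library-drug doses (not always all listed) in √10 steps, and values are duplicate-plate medians.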

[2] = compound: C=CCc1cccc(/C=N/NC(=O)CN2CCN(Cc3ccccc3)CC2)c1O [PAC-1] + COc1cc2c(Oc3ccc(NC(=O)C4(C(=O)Nc5ccc(F)cc5)CC4)cc3F)ccnc2cc1OCCCN1CCOCC1 [Foretinib] (partner 0.25 µM)
Summary of the method: as §1

[3] = compound: C=CCc1cccc(/C=N/NC(=O)CN2CCN(Cc3ccccc3)CC2)c1O [PAC-1] + Cc1nc(Nc2ncc(C(=O)Nc3c(C)cccc3Cl)s2)cc(N2CCN(CCO)CC2)n1 [Dasatinib] (partner 0.075 µM)
Summary of the method: as §1

[4] = compound: C=CC(=O)N1CCC[C@@H](n2nc(-c3ccc(Oc4ccccc4)cc3)c3c(N)ncnc32)C1 [Ibrutinib] + COc1cc2c(Oc3ccc(NC(=O)C4(C(=O)Nc5ccc(F)cc5)CC4)cc3F)ccnc2cc1OCCCN1CCOCC1 [Foretinib] (partner 0.25 µM)
Summary of the method: as §1

Cell Line | relative viability ([1]; first compound 0.02 µM) | relative viability ([1]; first compound 0.06325 µM) | relative viability ([1]; first compound 0.2 µM) | relative viability ([1]; first compound 2 µM) | relative viability ([2]; first compound 0.02 µM) | relative viability ([2]; first compound 0.06325 µM) | relative viability ([2]; first compound 0.2 µM) | relative viability ([2]; first compound 2 µM) | relative viability ([3]; first compound 0.02 µM) | relative viability ([3]; first compound 0.06325 µM) | relative viability ([3]; first compound 0.2 µM) | relative viability ([3]; first compound 2 µM) | relative viability ([4]; first compound 0.005 µM) | relative viability ([4]; first compound 0.01581 µM) | relative viability ([4]; first compound 0.05 µM) | relative viability ([4]; first compound 0.1581 µM) | relative viability ([4]; first compound 0.5 µM)
NCI-H1975 | 1.12 | 1.2 | 1.12 | 1.06 | 0.933 | 0.947 | 1.01 | 0.932 | 0.358 | 0.363 | 0.336 | 0.347 | 0.973 | 0.891 | 0.819 | 0.96 | 0.544
NCI-H1993 | 0.85 | 0.814 | 0.837 | 0.95 | 0.718 | 0.746 | 0.608 | 0.826 | 0.65 | 0.611 | 0.421 | 0.483 | 0.74 | 0.72 | 0.759 | 0.783 | 0.62
NCI-H2009 | 1.16 | 1.18 | 1.22 | 1.16 | 1.2 | 1.23 | 1.21 | 1.19 | 0.267 | 0.305 | 0.291 | 0.334 | 1.31 | 1.21 | 1.14 | 1.19 | 1.26
NCI-H2023 | 0.981 | 0.963 | 0.953 | 1.02 | 0.824 | 0.789 | 0.911 | 0.773 | 0.553 | 0.615 | 0.42 | 0.55 | 0.747 | 0.721 | 0.562 | 0.975 | 0.459
NCI-H2085 | 1.1 | 1.08 | 1.12 | 1.16 | 0.815 | 0.932 | 0.998 | 1.07 | 0.225 | 0.234 | 0.285 | 0.213 | 0.916 | 0.628 | 0.941 | 1.1 | 0.625
NCI-H2087 | 1.15 | 0.991 | 0.965 | 0.998 | 0.787 | 1.22 | 0.959 | 1.18 | 0.915 | 0.848 | 0.798 | 0.78 | 1.18 | 1.21 | 1.09 | – | 1.24
NCI-H2126 | 0.884 | 0.886 | 0.87 | 0.854 | 1.28 | 1.25 | 1.15 | 1.12 | 0.615 | 0.584 | 0.642 | 0.615 | – | 1.03 | 1.24 | 1.25 | 1.02
NCI-H2170 | 0.637 | 0.622 | 0.569 | 0.461 | 1.08 | 0.961 | 0.969 | 1.01 | 0.499 | 0.506 | 0.625 | 0.712 | 1.06 | 0.858 | 0.951 | 1.01 | 0.377
NCI-H2228 | 0.98 | 1.12 | 0.893 | 0.785 | 0.903 | 0.862 | 0.888 | 0.786 | 0.506 | 0.505 | 0.537 | 0.501 | 0.845 | – | 0.915 | 0.892 | 0.609
NCI-H2347 | 0.817 | 0.871 | 0.698 | 0.865 | 0.786 | 0.771 | 0.601 | 1.3 | 0.28 | 0.3 | 0.312 | 0.362 | – | 0.811 | 0.8 | – | 0.725
NCI-H2405 | 0.891 | 0.969 | 0.855 | 1.08 | 1.04 | 1.04 | 1.02 | 1.1 | 0.173 | 0.221 | 0.207 | 0.176 | 1.11 | 1.07 | 1.08 | 1.06 | –
NCI-H3122 | 0.975 | 1.02 | 1.01 | 0.993 | 0.958 | 0.976 | 0.967 | 0.89 | 0.828 | 0.811 | 0.857 | 0.764 | 1.02 | 0.984 | 1.04 | 0.938 | 1.04
PC-3 [JPC-3] | 0.894 | 0.817 | 0.708 | 0.844 | 1.06 | 1.02 | 0.996 | 0.994 | 1.06 | 0.986 | 0.981 | 0.975 | 1.05 | 0.936 | 0.891 | 1.09 | 0.547
PC-14 | 0.968 | 0.975 | 0.959 | 1.03 | 0.932 | 0.939 | 0.935 | 0.92 | 0.248 | 0.265 | 0.279 | 0.249 | 1.1 | 0.907 | – | 1.02 | 0.985
RERF-LC-KJ | 0.859 | 0.932 | 1.11 | 0.733 | 0.961 | 0.854 | 0.845 | 0.904 | 0.826 | 0.812 | 0.775 | 0.786 | 0.97 | 0.707 | 0.841 | 0.895 | 0.845
SK-LU-1 | 0.803 | 0.892 | 0.733 | 0.888 | 0.834 | 0.797 | 0.78 | 0.78 | 0.208 | 0.173 | 0.185 | 0.181 | 0.857 | 0.804 | 0.814 | 0.926 | 0.719
SW 1573 | 0.825 | 1.03 | 0.825 | 1.03 | 0.828 | 0.741 | 0.912 | 0.979 | 0.537 | 0.561 | 0.44 | 0.52 | 0.816 | 0.733 | 1.01 | 0.844 | 0.879
UMC-11 | 0.334 | 0.311 | 0.308 | 0.318 | 1.06 | 1.05 | 1.04 | 1.01 | 0.483 | 0.484 | 0.462 | 0.437 | 1.04 | 1.03 | 1.04 | 0.993 | 1.02
